In patent US10246496B2, “Potassium channel blockers and use thereof in the treatment of autoimmune diseases” (MONASH UNIVERSITY, priority 2014, dated 2019):

Assays:
[1] = target: T1, mKv1.3 (Mus musculus, UniProt P16390); experiment: Whole-cell patch clamp electrophysiology, Kv1.3 channel currents; format: cell-based
T1 construct: expressed in transfected cells
Description: Data are presented as mean±s.e.m.
Electrophysiological analysis—Cells were studied using the whole-cell configuration of a standard patch-clamp technique at RT. The bath solution contained (in mM): 160 NaCl, 4.5 KCl, 2 CaCl2, 1 MgCl2, 10 HEPES, pH 7.2, 300 mOsm. […] Kv currents were elicited by repeated 200 ms depolarising pulses from a holding potential of −80 mV to 40 mV, applied every 30 seconds. The Port-a-Patch patch clamp system (Nanion Technologies GmbH, Munich, Germany) and NPC-1 chips with 2-3.5 MΩ resistance were also utilised in conjunction. IC50 values of Kv blockers were calculated by fitting the Hill equation to the reduction of peak current measured at 40 mV.
Thus, both analogues have reduced affinity to K^+ channels and show a relatively low level of selectivity for Kv1.3 over Kv1.1. The implication is that neither Ser-3 nor Glu-3 was able to greatly discriminate between Pro377 in Kv1.3 and the corresponding Ala in Kv1.1.

[2] = target: Kv1.3 (Mus musculus, UniProt P16390); conditions: literature values (Kalman 1998; Pennington 2009); spread = s.e.m.; read-out: Binding affinities (IC50) Kv1.3; cited from earlier work
Kv1.3, sequence (P16390 whole entry): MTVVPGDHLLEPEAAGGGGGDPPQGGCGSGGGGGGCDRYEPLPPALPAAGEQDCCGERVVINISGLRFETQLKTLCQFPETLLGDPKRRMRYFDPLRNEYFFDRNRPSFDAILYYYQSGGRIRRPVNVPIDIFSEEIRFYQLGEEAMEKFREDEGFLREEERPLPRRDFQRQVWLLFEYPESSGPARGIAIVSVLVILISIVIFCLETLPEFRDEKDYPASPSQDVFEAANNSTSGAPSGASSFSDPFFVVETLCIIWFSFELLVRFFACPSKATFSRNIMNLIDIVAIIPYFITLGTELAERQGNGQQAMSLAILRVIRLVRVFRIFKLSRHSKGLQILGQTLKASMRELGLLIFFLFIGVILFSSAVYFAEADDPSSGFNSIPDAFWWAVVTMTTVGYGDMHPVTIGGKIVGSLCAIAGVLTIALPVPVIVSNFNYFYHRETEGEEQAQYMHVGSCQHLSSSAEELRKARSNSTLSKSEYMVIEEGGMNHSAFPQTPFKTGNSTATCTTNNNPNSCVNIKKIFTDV

T1 sequence (P16390 whole entry): as above

Compound | IC50 [1] [nM] | higher affinity for Kv1.3 as compared to [ESSS]ShK ([1]; relative to [ESSS]ShK) [fold] | higher affinity for Kv1.3 than ShK-192 ([1]; relative to ShK-192) [fold] | IC50 [2] [nM]
CC[C@H](C)[C@@H]1NC(=O)[C@@H](NC(=O)[C@H](CO)NC(=O)[C@H](CCCNC(=N)N)NC(=O)[C@H](CO)NC(=O)[C@H](CO)NC(=O)[C@H](CCC(=O)O)NC(=O)[C@@H](N)CCC(=O)O)CSSC[C@@H](C(N)=O)NC(=O)[C@H]([C@@H](C)O)NC(=O)CNC(=O)[C@@H]2CSSC[C@@H]3NC(=O)[C@H](CCC(N)=O)NC(=O)[C@H](Cc4ccccc4)NC(=O)[C@H](C)NC(=O)[C@H]([C@@H](C)O)NC(=O)[C@H](CSSC[C@H](NC(=O)[C@H](Cc4ccccc4)NC(=O)[C@H](CO)NC(=O)[C@H](CC(C)C)NC(=O)[C@H](CCCNC(=N)N)NC(=O)[C@H](Cc4ccc(O)cc4)NC(=O)[C@H](CCCCN)NC(=O)[C@H](CCSC)NC(=O)[C@H](CO)NC(=O)[C@H](Cc4c[nH]cn4)NC(=O)[C@H](CCCCN)NC3=O)C(=O)N[C@@H](CCCNC(=N)N)C(=O)N[C@@H](CCCCN)C(=O)N[C@@H]([C@@H](C)O)C(=O)N2)NC(=O)[C@H](CCCNC(=N)N)NC(=O)[C@H](CO)NC(=O)[C@H](CCCCN)NC(=O)[C@@H]2CCCN2C(=O)[C@H]([C@@H](C)CC)NC(=O)[C@H]([C@@H](C)O)NC(=O)[C@H](CC(=O)O)NC1=O [[EESS]ShK] | 0.404 ± 0.058 | 1.6 | – | –
CC[C@H](C)[C@@H]1NC(=O)[C@@H](NC(=O)[C@H](CO)NC(=O)[C@H](CCCNC(=N)N)NC(=O)[C@H](CO)NC(=O)[C@H](CO)NC(=O)[C@H](Cc2c[nH]c3ccccc23)NC(=O)[C@@H](N)CCC(=O)O)CSSC[C@@H](C(=O)O)NC(=O)[C@H]([C@@H](C)O)NC(=O)CNC(=O)[C@@H]2CSSC[C@@H]3NC(=O)[C@H](CCC(N)=O)NC(=O)[C@H](Cc4ccccc4)NC(=O)[C@H](C)NC(=O)[C@H]([C@@H](C)O)NC(=O)[C@H](CSSC[C@H](NC(=O)[C@H](Cc4ccccc4)NC(=O)[C@H](CO)NC(=O)[C@H](CC(C)C)NC(=O)[C@H](CCCNC(=N)N)NC(=O)[C@H](Cc4ccc(O)cc4)NC(=O)[C@H](CCCCN)NC(=O)[C@H](CCSC)NC(=O)[C@H](CO)NC(=O)[C@H](Cc4c[nH]cn4)NC(=O)[C@H](CCCCN)NC3=O)C(=O)N[C@@H](CCCNC(=N)N)C(=O)N[C@@H](CCCCN)C(=O)N[C@@H]([C@@H](C)O)C(=O)N2)NC(=O)[C@H](CCCNC(=N)N)NC(=O)[C@H](CO)NC(=O)[C@H](CCCCN)NC(=O)[C@@H]2CCCN2C(=O)[C@H]([C@@H](C)CC)NC(=O)[C@H]([C@@H](C)O)NC(=O)[C@H](CC(=O)O)NC1=O [[EWSS]ShK] | 0.033 ± 0.007 | – | 4 | –
RSCIDTIPKSRCTAFQCKHSMKYRLSFCRKTCGTC [ShK] | – | – | – | 0.011
